Results from US11964949B2, “Substituted phenyloxazolidinones for antimicrobial therapy” (priority 2015, dated 2024).
Values after ≈ are worked out from the molar mass of the structure shown. Read-outs that look alike come from different tables or passages of the source.

Columns and labels:
[1] = tested on: Mycobacterium tuberculosis H37Rv; experiment: In vitro assay for antimicrobial susceptibility (microplate Alamar blue, MIC); type: cell-based; settings: Mycobacterium tuberculosis, read-out: MIC (μg/mL) against H37Rv
[2] = tested on: mitochondrial protein synthesis (MPS) in H9C2 cells; experiment: In vitro assay for MPS inhibition (COX-1 / SDH-A ELISA in H9C2 cells); type: cell-based, rat; settings: Rattus norvegicus, read-out: IC50 (μM) MPS inhibition
[3] = M. tuberculosis H37Rv, 7H9 broth, Alamar blue
[4] = 120 h, H9C2 cells, 5 days incubation

Row | Structure (SMILES) | MIC [1, 3] [µg/mL] | IC50 [2, 4] [µM] | MIC ([1]; H37RV) [µg/mL] | IC50 ([2]; H9c2, 120 h) [µM]
1 | O=C1O[C@@H](Cn2nccn2)CN1c1ccc(N2CCCSCCC2)c(F)c1 [OTB-113, (R)-5-[(2H-1,2,3-triazol-2-yl)methyl]-3-[3-fluoro-4-(1,5-thiazocan-5-yl)phenyl]oxazolidin-2-one] | 2 (≈ 5.11 µM) | > 100 | – | –
2 | CCCC(=O)NC[C@H]1CN(c2ccc(N3CCC[S+]([O-])CCC3)c(F)c2)C(=O)O1 [OBD-004, (S)—N-((3-(3-Fluoro-4-(1-oxido-1,5-thiazocan-5-yl)phenyl)-2-oxooxazolidin-5-yl)methyl)butyramide] | 3.34 (≈ 7.84 µM) | 15.8 | – | –
3 | NC[C@H]1CN(c2ccc(N3C4CCC3C[S+]([O-])C4)c(F)c2)C(=O)O1 (some centres unmarked) [OBD-085] | – | – | 1.1 (≈ 3.11 µM) | > 100
4 | CS(=O)(=O)NC[C@H]1CN(c2cc(F)c(N3CC4(C3)C[S+]([O-])C4)c(F)c2)C(=O)O1 [OTB-516-2B] | 3 (≈ 6.89 µM) | > 100 | – | –
5 | CCCC(=O)OC[C@H]1CN(c2ccc(N3CCCSCC3)c(F)c2)C(=O)O1 [OTB-108, (R)-[3-[3-Fluoro-4-(1,4-thiazepan-4-yl)phenyl]-2-oxo-5-oxazolidinyl]methyl butyrate] | 0.125 (≈ 0.315 µM) | > 100 | – | –
6 | O=C(NC[C@H]1CN(c2ccc(N3CCCSCC3)c(F)c2)C(=O)O1)c1ccco1 [OTB-111, (S)—N-[(3-[3-Fluoro-4-(1,4-thiazepan-4-yl)phenyl]-2-oxo-oxazolidin-5-yl)methyl]furan-2-carboxamide] | 0.125 (≈ 0.298 µM) | 60.3 | – | –
7 | O=C(NC[C@H]1CN(c2cc(F)c(N3CC4CCC(C3)O4)c(F)c2)C(=O)O1)C1CCC1 [OBD-253] | 0.53 (≈ 1.26 µM) | 65 | – | –
8 | CCCC(=O)NC[C@H]1CN(c2ccc(N3CCCS(=O)(=O)CC3)c(F)c2)C(=O)O1 [OBD-007, (S)—N-((3-(4-(1,1-Dioxido-1,4-thiazepan-4-yl)-3-fluorophenyl)-2-oxooxazolidin-5-yl)methyl)butyramide] | 0.46 (≈ 1.08 µM) | 19.8 | – | –
9 | O=C(NC[C@H]1CN(c2ccc(N3[C@@H]4CC[C@H]3CSC4)c(F)c2)C(=O)O1)C1CCC1 [OTB-507, N—(((S)-3-(4-((1R,5S)-3-Thia-8-aza-bicyclo[3.2.1]octan-8-yl)-3-fluorophenyl)-2-oxo-oxazolidin-5-yl)methyl)cyclobutanecarboxamide] | – | – | 0.7 (≈ 1.67 µM) | 10
10 | CCCC(=O)NC[C@H]1CN(c2ccc(N3CCCSCC3)c(F)c2)C(=O)O1 [OBD-005, (S)—N-((3-(3-fluoro-4-(1,4-thiazepan-4-yl)phenyl)-2-oxooxazolidin-5-yl)methyl)buty ramide] | 0.055 (≈ 0.139 µM) | 15.6 | – | –
11 | CCCC(=O)NC[C@H]1CN(c2cc(F)c(N3CC4CCC(C3)O4)c(F)c2)C(=O)O1 [OBD-254] | 0.73 (≈ 1.78 µM) | 36 | – | –
12 | O=C1O[C@@H](Cn2ccnn2)CN1c1cc(F)c(N2C3CCC2C[S+]([O-])C3)c(F)c1 (some centres unmarked) [OTB-517] | – | – | 1.3 to 2 (≈ 3.07 to 4.72 µM) | 30 to 55
13 | O=C(NC[C@H]1CN(c2ccc(N3CCCSCC3)c(F)c2)C(=O)O1)c1cccs1 [OTB-112, (S)—N-[(3-[3-Fluoro-4-(1,4-thiazepan-4-yl)phenyl]-2-oxo-oxazolidin-5-yl)methyl]thiophene-2-carboxamide] | 0.5 (≈ 1.15 µM) | > 100 | – | –
14 | O=C1O[C@@H](Cn2cncn2)CN1c1ccc(N2CCC[S+]([O-])CCC2)c(F)c1 [OBD-009, (R)-5-((1H-1,2,4-Triazol-1-yl)methyl)-3-(3-fluoro-4-(1-oxido-1,5-thiazocan-5-yl)phenyl)oxazolidin-2-one] | 21.1 (≈ 51.7 µM) | > 100 | – | –
15 | O=C(NC[C@H]1CN(c2ccc(N3CC4(C3)C[S+]([O-])C4)c(F)c2)C(=O)O1)C1CC1 [OTB-255] | 1.9 (≈ 4.66 µM) | 10 | – | –
16 | CS(=O)(=O)NC[C@H]1CN(c2cc(F)c(N3CC4(COC4)C3)c(F)c2)C(=O)O1 [OTB-232, (R)—N-((3-(3,5-Difluoro-4-(2-oxa-6-azaspiro[3.3]heptan-6-yl)phenyl)-2-oxo-oxazolidin-5-yl)methyl)methanesulfonamide] | 1.5 to 4 (≈ 3.72 to 9.92 µM) | > 100 | – | –
17 | CCCC(=O)NC[C@H]1CN(c2ccc(N3C4CCC3CSC4)c(F)c2)C(=O)O1 [OBD-016, N—(((S)-3-(4-(3-thia-8-aza-bicyclo[3.2.1]octan-8-yl)-3-fluorophenyl)-2-oxooxazolidin-5-yl)methyl)butyramide] | – | – | 0.486 (≈ 1.19 µM) | 13
18 | O=C(NC[C@H]1CN(c2cc(F)c(N3[C@@H]4CC[C@H]3CSC4)c(F)c2)C(=O)O1)C1CC1 [OTB-508, N—(((S)-3-(4-((1R,5S)-3-Thia-8-aza-bicyclo[3.2.1]octan-8-yl)-3,5-difluorophenyl)-2-oxo-oxazolidin-5-yl)methyl)cyclopropanecarboxamide] | – | – | 0.2 (≈ 0.472 µM) | 8
19 | COC(=O)NC[C@H]1CN(c2cc(F)c(N3[C@@H]4CC[C@H]3CSC4)c(F)c2)C(=O)O1 [OTB-512, Methyl (((S)-3-(4-((1R,5S)-3-thia-8-azabicyclo[3.2.1]octan-8-yl)-3,5-difluorophenyl)-2-oxo-oxazolidin-5-yl)methyl)carbamate] | – | – | 0.063 (≈ 0.152 µM) | 42.5

Row | Structure (SMILES) | MIC [1, 3] [µg/mL] | IC50 [2, 4] [µM] | MIC ([1]; H37RV) [µg/mL] | IC50 ([2]; H9c2, 120 h) [µM]
20 | O=C(NC[C@H]1CN(c2cc(F)c(N3CC4(C3)C[S+]([O-])C4)c(F)c2)C(=O)O1)C1CC1 [OTB-252] | 0.7 (≈ 1.65 µM) | 52 | – | –
21 | O=C(NC[C@H]1CN(c2cc(F)c(N3CC4(COC4)C3)c(F)c2)C(=O)O1)C1CCC1 [OTB-240, (S)—N-((3-(3,5-Difluoro-4-(2-oxa-6-azaspiro[3.3]heptan-6-yl)phenyl)-2-oxo-oxazolidin-5-yl)methyl)cyclobutanecarboxamide] | 0.24 to 0.6 (≈ 0.589 to 1.47 µM) | 19 to 67 | – | –
22 | O=C1OC(Cn2ccnn2)CN1c1cc(F)c(N2CC3CCC(C2)O3)c(F)c1 (centres unmarked) [OBD-054, 5-((1H-1,2,3-triazol-1-yl)methyl)-3-(4-(8-oxa-3-aza-bicyclo[3.2.1]octan-3-yl)-3,5-difluorophenyl)oxazolidin-2-one] | 0.5 (≈ 1.28 µM) | 6 to 31 | – | –
23 | O=C(NC[C@H]1CN(c2cc(F)c(N3CC4(C3)C[S+]([O-])C4)c(F)c2)C(=O)O1)C1CCC1 [OTB-251] | 0.9 (≈ 2.05 µM) | 24 | – | –
24 | CCCC(=O)NC[C@H]1CN(c2ccc(N3CCCSCCC3)c(F)c2)C(=O)O1 [OBD-003, (S)—N-((3-(3-fluoro-4-(1,5-thiazocan-5-yl)phenyl)-2-oxooxazolidin-5-yl)methyl)buty ramide] | 0.33 (≈ 0.806 µM) | > 100 | – | –
25 | O=C(NC[C@H]1CN(c2cc(F)c(N3CCCSCC3)c(F)c2)C(=O)O1)C1CC1 [OTB-408] | 0.342 (≈ 0.831 µM) | 3.61 | – | –
26 | COC(=O)NC[C@H]1CN(c2cc(F)c(N3CC4(COC4)C3)c(F)c2)C(=O)O1 [OTB-231, Methyl (S)-((3-(3,5-difluoro-4-(2-oxa-6-azaspiro[3.3]heptan-6-yl)phenyl)-2-oxo-oxazolidin-5-yl)methyl)carbamate] | 0.24 to 0.7 (≈ 0.626 to 1.83 µM) | 37 to 63 | – | –
27 | CCCCS(=O)(=O)NC[C@H]1CN(c2ccc(N3CCCSCCC3)c(F)c2)C(=O)O1 [OTB-120, (R)—N-[[3-(3-Fluoro-4-(1,5-thiazocan-5-yl)phenyl)-2-oxo-oxazolidin-5-yl]methyl]butane-1-sulfonamide] | 3.88 (≈ 8.44 µM) | 7.27 | – | –
28 | CCCC(=O)NC[C@H]1CN(c2ccc(N3[C@@H]4CC[C@H]3C[S+]([O-])C4)c(F)c2)C(=O)O1 (stereo partly drawn) [OBD-017, N-(((5S)-3-(3-Fluoro-4-((1R,5S)-3-oxido-3-thia-8-azabicyclo[3.2.1]octan-8-yl)phenyl)-2-oxooxazolidin-5-yl)methyl)butyramide] | – | – | 5.8 to 6.3 (≈ 13.7 to 14.9 µM) | 41
29 | O=C1O[C@@H](Cn2ccnn2)CN1c1cc(F)c(N2CC3(CSC3)C2)c(F)c1 [OTB-245, (R)-5-((1H-1,2,3-Triazol-1-yl)methyl)-3-(3,5-difluoro-4-(2-thia-6-azaspiro[3.3]heptan-6-yl)phenyl)oxazolidin-2-one] | 0.03 to 0.5 (≈ 0.0763 to 1.27 µM) | 25 to 35 | – | –
30 | O=C1O[C@@H](Cn2ccnn2)CN1c1ccc(N2CCC[S+]([O-])CC2)c(F)c1 (stereo partly drawn) [OTB-137, (5R)-5-((1H-1,2,3-Triazol-1-yl)methyl)-3-(3-fluoro-4-(1-oxido-1,4-thiazepan-4-yl)phenyl)oxazolidin-2-one] | 0.277 (≈ 0.704 µM) | 7.64 | – | –
31 | CC(=O)NC[C@H]1CN(c2cc(F)c(N3CC4CCC(C3)O4)c(F)c2)C(=O)O1 [OBD-048] | 0.39 (≈ 1.02 µM) | 5 | – | –
32 | NC[C@H]1CN(c2cc(F)c(N3C4CCC3CSC4)c(F)c2)C(=O)O1 [OBD-083, (5S)-3-(4-(3-thia-8-aza-bicyclo[3.2.1]octan-8-yl)-3,5-difluorophenyl)-5-(aminomethyl)oxazolidin-2-one] | – | – | 0.05 (≈ 0.141 µM) | 20
33 | O=C1O[C@@H](Cn2ccnn2)CN1c1ccc(N2CCCSCC2)c(F)c1 [OTB-107, (R)-5-[(1H-1,2,3-Triazol-1-yl)methyl]-3-[3-fluoro-4-(1,4-thiazepan-4-yl)phenyl]oxazolidin-2-one] | 0.03 (≈ 0.0795 µM) | 84.9 | – | –
34 | O=C(NC[C@H]1CN(c2cc(F)c(N3CC4CCC(C3)O4)c(F)c2)C(=O)O1)C1CC1 [OBD-252] | 0.47 (≈ 1.15 µM) | 32.3 | – | –
35 | O=C1O[C@@H](CO)CN1c1cc(F)c(N2CC3(COC3)C2)c(F)c1 [OTB-229, (R)-3-(3,5-Difluoro-4-(2-oxa-6-azaspiro[3.3]heptan-6-yl)phenyl)-5-(hydroxymethyl)oxazolidin-2-one] | 1.9 to 7.4 (≈ 5.82 to 22.7 µM) | > 100 | – | –
36 | O=C(NC[C@H]1CN(c2ccc(N3[C@@H]4CC[C@H]3CSC4)c(F)c2)C(=O)O1)C1CC1 [OTB-506, N—(((S)-3-(4-((1R,5S)-3-Thia-8-azabicyclo[3.2.1]octan-8-yl)-3-fluorophenyl)-2-oxo-oxazolidin-5-yl)methyl)cyclopropanecarboxamide] | – | – | 1 (≈ 2.47 µM) | 8
37 | O=C(NC[C@H]1CN(c2cc(F)c(N3CC4(CSC4)C3)c(F)c2)C(=O)O1)C1CC1 [OTB-243, (S)—N-((3-(3,5-Difluoro-4-(2-thia-6-azaspiro[3.3]heptan-6-yl)phenyl)-2-oxo-oxazolidin-5-yl)methyl)cyclopropanecarboxamide] | 0.03 (≈ 0.0733 µM) | 14 | – | –
